In US10125100B2, “Kinase inhibitors” (Respivert Limited, priority 2014, dated 2018):

Tests used:
p38 MAPKα (MAPK14) = p38 MAPKα (MAPK14) (Homo sapiens (Human), UniProt Q16539); test: p38 MAPKα enzyme inhibition (Method 2), Z-LYTE FRET; type: biochemical
Method: (§1) The enzyme inhibitory activities of compounds disclosed herein are determined by FRET using synthetic peptides labelled with both donor and acceptor fluorophores (Z-LYTE, Invitrogen Ltd., Paisley, UK).
The following two assay variants can be used for determination of p38 MAPKα inhibition.
The inhibitory activities of test compounds against the p38 MAPKα isoform (MAPK14: Invitrogen) are evaluated indirectly by determining the level of activation/phosphorylation of the down-stream molecule, MAPKAP-K2. The p38 MAPKα protein (80 ng/mL, 2.5 μL) is mixed with the test compound (2.5 μL of either 4 μg/mL, 0.4 μg/mL, 0.04 μg/mL or 0.004 μg/mL) for 2 hr at RT. […] The mixture is incubated for 1 hr at RT. Development reagent (protease, 5 μL) is added for 1 hr prior to detection in a fluorescence microplate reader (Varioskan® Flash, ThermoFisher Scientific).
This method follows the same steps as Method 1 above, but utilises a higher concentration of the p38 MAPKα protein (2.5 μL of 200 ng/mL protein instead of 2.5 μL of 80 ng/mL protein) for mixing with the test compound (tested at either 1 μg/mL, 0.1 μg/mL, 0.01 μg/mL or 0.001 μg/mL).
(§2) In all cases, the site-specific protease cleaves non-phosphorylated peptide only and eliminates the FRET signal. Phosphorylation levels of each reaction are calculated using the ratio of coumarin emission (donor) over fluorescein emission (acceptor), for which high ratios indicate high phosphorylation and low ratios indicate low phosphorylation levels.

mitosis in PBMCs = test: (g) Cell mitosis assay; type: cell-based; conditions: Homo sapiens, PBMC, 5 μg/mL
Method: Peripheral blood mononucleocytes (PBMCs) from healthy subjects are separated from whole blood (Quintiles, London, UK) using a density gradient (Histopaque®-1077, Sigma-Aldrich, Poole, UK). The PBMCs (3 million cells per sample) are subsequently treated with 2% PHA (phytohaemagglutinin, Sigma-Aldrich, Poole, UK) for 48 hr, followed by a 20 hr exposure to varying concentrations of test compounds. At 2 hr before collection, PBMCs are treated with demecolcine (0.1 μg/mL; Invitrogen, Paisley, UK) to arrest cells in metaphase. To observe mitotic cells, PBMCs are permeabilized and fixed by adding Intraprep (50 μL; Beckman Coulter, France), and stained with anti-phospho-histone 3 ([…]; #9701; Cell Signalling, Danvers, Mass.) and propidium iodide (1 mg/mL; Sigma-Aldrich, Poole, UK) as previously described (Muehlbauer P. A. and Schuler M. J., Mutation Research, 2003, 537:117-130). Fluorescence is observed using an ATTUNE flow cytometer (Invitrogen, Paisley, UK), gating for lymphocytes.

Syk = Syk (Homo sapiens (Human), UniProt P43405); test: Syk enzyme inhibition, Z-LYTE FRET; type: biochemical
Method: as §1
(§3) The relevant enzyme (3000 ng/mL or 2000 ng/mL respectively, 2.5 μL) is incubated with the test compound (either 1 μg/mL, 0.1 μg/mL, 0.01 μg/mL, or 0.001 μg/mL, 2.5 μL each) for 2 hr at RT. The FRET peptides (8 μM, 2.5 μL), and appropriate ATP solutions (2.5 μL, 800 μM for c-Src, and 60 μM ATP for Syk) are then added to the enzymes/compound mixtures and the mixture incubated for 1 hr. Development reagent (protease, 5 μL) is added for 1 hr prior to detection in a fluorescence microplate reader (Varioskan® Flash, ThermoFisher Scientific).
as §2

c-Src = c-Src (Homo sapiens (Human), UniProt P12931); test: c-Src enzyme inhibition, Z-LYTE FRET; type: biochemical
Chain of c-Src (P12931 whole entry, looked up): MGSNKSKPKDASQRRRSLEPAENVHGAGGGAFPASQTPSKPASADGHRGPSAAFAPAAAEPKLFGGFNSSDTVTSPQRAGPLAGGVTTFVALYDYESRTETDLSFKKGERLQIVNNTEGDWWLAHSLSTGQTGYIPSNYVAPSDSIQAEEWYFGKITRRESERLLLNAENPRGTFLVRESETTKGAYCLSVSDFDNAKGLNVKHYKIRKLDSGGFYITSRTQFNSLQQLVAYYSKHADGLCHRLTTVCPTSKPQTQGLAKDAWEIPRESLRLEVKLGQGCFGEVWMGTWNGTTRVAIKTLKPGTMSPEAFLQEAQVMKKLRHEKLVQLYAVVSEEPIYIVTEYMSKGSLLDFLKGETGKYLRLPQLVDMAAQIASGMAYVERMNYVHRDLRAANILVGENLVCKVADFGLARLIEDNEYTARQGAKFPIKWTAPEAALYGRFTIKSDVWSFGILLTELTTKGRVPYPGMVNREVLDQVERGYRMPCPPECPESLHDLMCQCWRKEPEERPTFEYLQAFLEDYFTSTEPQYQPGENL
Method: as §1
as §3, with “The inhibitory activities of compounds of the invention against c-Src and Syk enzymes (Invitrogen), are evaluated in a similar fashion to that described hereinabove. The relevant” for “The relevant”
as §2

Jurkat cells = test: (r) Cell cytotoxicity assay; type: cell-based, human; conditions: 24 hours
Method in brief: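 Viability read by flow cytometry as the fraction of propidium iodide-negative cells (7.5 μg/mL PI, 15 min), relative to 1.0% DMSO control. Beforehand, 1×10^5 Jurkat cells in RPMI/10% FBS were treated 24 h at 37° C., 5% CO2 with test compound at final 20, 5 or 1 μg/mL.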

Chain of p38 MAPKα (MAPK14) (Q16539 whole entry): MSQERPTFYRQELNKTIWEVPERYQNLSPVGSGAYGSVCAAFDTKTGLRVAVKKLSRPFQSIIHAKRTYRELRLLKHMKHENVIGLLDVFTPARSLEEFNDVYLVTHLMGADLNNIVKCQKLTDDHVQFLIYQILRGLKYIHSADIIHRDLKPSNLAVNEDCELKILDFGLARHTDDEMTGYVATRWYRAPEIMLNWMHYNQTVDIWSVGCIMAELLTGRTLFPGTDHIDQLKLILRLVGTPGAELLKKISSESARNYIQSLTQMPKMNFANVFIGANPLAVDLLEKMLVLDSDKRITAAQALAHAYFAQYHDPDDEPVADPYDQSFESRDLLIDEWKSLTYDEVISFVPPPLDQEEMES

SMILES	IC50 (p38 MAPKα (MAPK14)) [nM]	IC50 (Syk) [nM]	IC50 (c-Src) [nM]	inhibition at 5 µg/mL (mitosis in PBMCs) [%]	% Viability at 1 μg/mL (Jurkat cells; 1 μg/mL) [%]	% Viability at 5 μg/mL (Jurkat cells; 5 μg/mL) [%]	% Viability at 20 μg/mL (Jurkat cells; 20 μg/mL) [%]
COc1cc(Nc2cc(Oc3ccc(NC(=O)Nc4cc(C(C)(C)C)cc(NS(C)(=O)=O)c4OC)c4ccccc34)ccn2)ccc1C(=O)NCCCN1CCN(C)CC1 [17(aa), 4-[[4-[[4-[[5-tert-butyl-3-(methanesulfonamido)-2-methoxy-phenyl]carbamoylamino]-1-naphthyl]oxy]-2-pyridyl]amino]-2-methoxy-N-[3-(4-methylpiperazin-1-yl)propyl]benzamide]	20	61	24	77.7	–	–	–
COCCOCCOCCNC(=O)c1ccc(Nc2cc(Oc3ccc(NC(=O)Nc4cc(C(C)(C)C)cc(NS(C)(=O)=O)c4OC)c4ccccc34)ccn2)cc1OC [Example 5, 4-((4-((4-(3-(5-(tert-Butyl)-2-methoxy-3-(methylsulfonamido)phenyl)ureido)naphthalen-1-yl)oxy)pyridin-2-yl)amino)-2-methoxy-N-(2-(2-(2-methoxyethoxy)ethoxy)ethyl)benzamide]	119	187	31	27.7	–	–	–
COc1cc(Nc2cc(Oc3ccc(NC(=O)Nc4cc(C(C)(C)C)cc(NS(C)(=O)=O)c4OC)c4ccccc34)ccn2)ccc1C(=O)NCCN1CCS(=O)(=O)CC1 [17(r), 4-[[4-[[4-[[5-tert-butyl-3-(methanesulfonamido)-2-methoxy-phenyl]carbamoylamino]-1-naphthyl]oxy]-2-pyridyl]amino]-N-[2-(1,1-dioxo-1,4-thiazinan-4-yl)ethyl]-2-methoxy-benzamide]	119	102	37	36.6	–	–	–
COc1cc(Nc2cc(Oc3ccc(NC(=O)Nc4cc(C(C)(C)C)cc(NS(C)(=O)=O)c4OC)c4ccccc34)ccn2)ccc1C(=O)NCC1CCN(C)CC1 [17(ak), 4-[[4-[[4-[[5-tert-butyl-3-(methanesulfonamido)-2-methoxy-phenyl]carbamoylamino]-1-naphthyl]oxy]-2-pyridyl]amino]-2-methoxy-N-[(1-methyl-4-piperidyl)methyl]benzamide]	–	85	12	74.7	99.0	69.5	0.4
COc1cc(Nc2cc(Oc3ccc(NC(=O)Nc4cc(C(C)(C)C)cc(NS(C)(=O)=O)c4OC)c4ccccc34)ccn2)ccc1C(=O)NC1CCN(C)CC1 [17(j), 4-[[4-[[4-[[5-tert-butyl-3-(methanesulfonamido)-2-methoxy-phenyl]carbamoylamino]-1-naphthyl]oxy]-2-pyridyl]amino]-2-methoxy-N-(1-methyl-4-piperidyl)benzamide]	21	39	16	85.4	–	–	–
COCCOCCOCC[S+]([O-])c1ccc(Nc2cc(Oc3ccc(NC(=O)Nc4cc(C(C)(C)C)cc(NS(C)(=O)=O)c4OC)c4ccccc34)ccn2)cc1OC (stereo not drawn) [Example 11, N-(5-(tert-Butyl)-2-methoxy-3-(3-(4-((2-((3-methoxy-4-((2-(2-(2-methoxyethoxy)ethoxy)ethyl)sulfinyl)phenyl)amino)pyridin-4-yl)oxy)naphthalen-1-yl)ureido)phenyl)methanesulfonamide]	35	318	76	26.6	–	–	–
COCCOCCOCCNC(=O)c1ccc(Nc2cc(Oc3ccc(NC(=O)Nc4cc(C(C)(C)C)cc(C(N)=O)c4OC)c4ccccc34)ccn2)cc1OC [Example 6, 4-((4-((4-(3-(5-(tert-Butyl)-3-carbamoyl-2-methoxyphenyl)ureido)naphthalen-1-yl)oxy)pyridin-2-yl)amino)-2-methoxy-N-(2-(2-(2-methoxyethoxy)ethoxy)ethyl)benzamide]	137	315	36	28.8	–	–	–

More lines, main results first:

IC50 (p38 MAPKα (MAPK14)) [nM]	IC50 (Syk) [nM]	IC50 (c-Src) [nM]	SMILES	inhibition at 5 µg/mL (mitosis in PBMCs) [%]	% Viability at 1 μg/mL (Jurkat cells; 1 μg/mL) [%]	% Viability at 5 μg/mL (Jurkat cells; 5 μg/mL) [%]	% Viability at 20 μg/mL (Jurkat cells; 20 μg/mL) [%]
121	277	37	COc1cc(Nc2cc(Oc3ccc(NC(=O)Nc4cc(C(C)(C)C)cc(C(N)=O)c4OC)c4ccccc34)ccn2)ccc1C(=O)NCCN1CCOCC1 [Example 4, 4-((4-((4-(3-(5-(tert-Butyl)-3-carbamoyl-2-methoxyphenyl)ureido)naphthalen-1-yl)oxy)pyridin-2-yl)amino)-2-methoxy-N-(2-morpholinoethyl)benzamide]	46.2	–	–	–
25	192	19	COc1cc(Nc2cc(Oc3ccc(NC(=O)Nc4cc(C(C)(C)C)cc(NS(C)(=O)=O)c4OC)c4ccccc34)ccn2)ccc1C(=O)NCCN1CCC(O)CC1 [17(m), 4-[[4-[[4-[[5-tert-butyl-3-(methanesulfonamido)-2-methoxy-phenyl]carbamoylamino]-1-naphthyl]oxy]-2-pyridyl]amino]-N-[2-(4-hydroxy-1-piperidyl)ethyl]-2-methoxy-benzamide]	80.5	–	–	–
59	107	21	COc1cc(Nc2cc(Oc3ccc(NC(=O)Nc4cc(C(C)(C)C)cc(NS(C)(=O)=O)c4OC)c4ccccc34)ccn2)ccc1C(=O)NCCN1CC[S+]([O-])CC1 [Example 7, 4-((4-((4-(3-(5-(tert-Butyl)-2-methoxy-3-(methylsulfonamido)phenyl)ureido)naphthalen-1-yl)oxy)pyridin-2-yl)amino)-2-methoxy-N-(2-(1-oxidothiomorpholino)ethyl)benzamide]	59.9	–	–	–
197	> 1280	316	COc1c(NC(=O)Nc2ccc(Oc3ccnc(Nc4ccc(OCCN5CCOCC5)c(C#N)c4)c3)c3ccccc23)cc(C(C)(C)C)cc1NS(C)(=O)=O [Example 9, N-(5-(tert-Butyl)-3-(3-(4-((2-((3-cyano-4-(2-morpholinoethoxy)phenyl)amino)pyridin-4-yl)oxy)naphthalen-1-yl)ureido)-2-methoxyphenyl)methanesulfonamide]	29.8	–	–	–
116	232	43	COc1cc(Nc2cc(Oc3ccc(NC(=O)Nc4cc(C(C)(C)C)cc(NS(C)(=O)=O)c4OC)c4ccccc34)ccn2)ccc1C(=O)N[C@@H](C)CN1CCOCC1 [17(v), 4-[[4-[[4-[[5-tert-butyl-3-(methanesulfonamido)-2-methoxy-phenyl]carbamoylamino]-1-naphthyl]oxy]-2-pyridyl]amino]-2-methoxy-N-[(1S)-1-methyl-2-morpholino-ethyl]benzamide]	34.4	–	–	–
156	336	74	COc1cc(Nc2cc(Oc3ccc(NC(=O)Nc4cc(C(C)(C)C)cc(NS(C)(=O)=O)c4OC)c4ccccc34)ccn2)ccc1C(=O)NCCN1CCOCC1(C)C [17(k), 4-[[4-[[4-[[5-tert-butyl-3-(methanesulfonamido)-2-methoxy-phenyl]carbamoylamino]-1-naphthyl]oxy]-2-pyridyl]amino]-N-[2-(3,3-dimethylmorpholin-4-yl)ethyl]-2-methoxy-benzamide]	24	–	–	–
